Earlier results on one molecule are cited in patent US20070292407A1, “Methods of treatment for meconium aspiration syndrome” (The Board of Trustees Operating Michigan State University, priority 2005, published 2007).

The conditions of the data set: in vitro; Burke et al., J Pediatr Surg 2002.

With `CC(=O)N[C@@H](CS)C(=O)O` [N-Acetylcysteine, N-acetyl-L-cysteine], the “reduction of meconium viscosity” value is “significant reduction of meconium viscosity”.
